Series [1] has as its target T1, human PPARα (Homo sapiens, UniProt Q07869).
T1 construct: human PPARα (amino acids 167-468); expressed in transfected cells; host or cells: CV-1
T1 sequence (Q07869 167-468): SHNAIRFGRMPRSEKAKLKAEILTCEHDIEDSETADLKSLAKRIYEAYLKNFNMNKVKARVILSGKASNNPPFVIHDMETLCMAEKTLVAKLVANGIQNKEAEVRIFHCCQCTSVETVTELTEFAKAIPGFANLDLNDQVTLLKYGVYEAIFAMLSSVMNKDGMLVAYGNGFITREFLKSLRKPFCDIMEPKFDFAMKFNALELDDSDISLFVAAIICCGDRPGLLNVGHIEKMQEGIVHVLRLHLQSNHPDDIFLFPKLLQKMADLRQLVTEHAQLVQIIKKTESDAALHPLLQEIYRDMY
Put plainly: GAL4-PPAR chimera receptor transactivation assay in CV-1 cells (Example 3). Format: cell-based. The settings on record: GAL4 DBD-hPPARα LBD chimera, read-out: Transactivation activity GAL 4 DBD-hPPAR LBD (EC50-Um) alpha. On the procedure:
(§1) MH100×4-tk-luc (2) was used as the reporter plasmid.
(§2) The luciferase and βGAL activity were measured according to the methods of Umesono, K. et al. (4) with slight modifications. A substrate reagent kit (Picagene, Toyo Ink) was used for the luciferase assay. Assays were performed in duplicate and triplicate for GAL4-chimeras and full-length receptors, respectively. Experiments were repeated at least four times.

Series [2] has as its target T2, human PPARγ1 (Homo sapiens, UniProt P37231).
T2 construct: PPARγ1 (amino acids 176-477); expressed in transfected cells; host or cells: CV-1
T2 sequence (P37231 176-477 isoform P37231-2): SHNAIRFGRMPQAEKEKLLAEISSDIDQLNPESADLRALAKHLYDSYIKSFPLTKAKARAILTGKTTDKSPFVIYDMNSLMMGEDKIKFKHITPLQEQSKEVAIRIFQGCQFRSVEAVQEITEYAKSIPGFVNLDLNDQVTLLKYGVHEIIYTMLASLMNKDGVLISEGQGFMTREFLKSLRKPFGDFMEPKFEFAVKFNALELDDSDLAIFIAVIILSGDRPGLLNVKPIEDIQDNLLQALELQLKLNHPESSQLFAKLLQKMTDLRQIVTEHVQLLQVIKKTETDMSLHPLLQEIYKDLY
The description is as above. The settings on record: GAL4 DBD-hPPARγ LBD chimera, read-out: Transactivation activity GAL 4 DBD-hPPAR LBD (EC50-Um) gamma. Format: cell-based. On the procedure: as §1, §2

In series [3] the target is T3, human PPARδ (Homo sapiens, UniProt Q03181).
T3 construct: PPARδ (amino acids 139-441); expressed in transfected cells; host or cells: CV-1
T3 sequence (Q03181 139-441): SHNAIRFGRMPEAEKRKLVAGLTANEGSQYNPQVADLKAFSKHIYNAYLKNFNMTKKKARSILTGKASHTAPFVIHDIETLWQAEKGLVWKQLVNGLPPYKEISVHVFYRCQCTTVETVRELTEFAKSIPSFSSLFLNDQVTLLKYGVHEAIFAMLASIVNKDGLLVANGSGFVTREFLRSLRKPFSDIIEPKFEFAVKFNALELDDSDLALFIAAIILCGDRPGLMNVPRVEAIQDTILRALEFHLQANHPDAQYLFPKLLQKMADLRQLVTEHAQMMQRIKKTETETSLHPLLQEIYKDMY
The series is described as above. Format: cell-based. The conditions noted are these: GAL4 DBD-hPPARδ LBD chimera, read-out: Transactivation activity GAL 4 DBD-hPPAR LBD (EC50-Um) delta. On the procedure: as §1, §2

Series [4] deals with T4, human PPARα (Homo sapiens, UniProt Q07869).
T4 construct: expressed in transfected cells; host or cells: CV-1
T4 sequence (Q07869 1-468): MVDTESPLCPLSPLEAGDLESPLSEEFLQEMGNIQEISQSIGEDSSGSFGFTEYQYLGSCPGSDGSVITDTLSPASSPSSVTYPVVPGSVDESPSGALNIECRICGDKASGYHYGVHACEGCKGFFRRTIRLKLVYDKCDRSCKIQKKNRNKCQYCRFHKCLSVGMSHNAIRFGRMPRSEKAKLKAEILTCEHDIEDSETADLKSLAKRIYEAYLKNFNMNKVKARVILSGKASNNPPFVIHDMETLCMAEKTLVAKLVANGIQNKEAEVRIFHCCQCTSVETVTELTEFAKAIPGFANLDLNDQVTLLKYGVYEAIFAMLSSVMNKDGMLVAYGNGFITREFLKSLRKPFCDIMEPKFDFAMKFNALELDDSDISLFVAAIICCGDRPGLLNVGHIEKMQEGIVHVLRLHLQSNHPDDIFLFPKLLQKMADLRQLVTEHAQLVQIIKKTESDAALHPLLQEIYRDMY
T4 sequence (P19793 1-462 partner): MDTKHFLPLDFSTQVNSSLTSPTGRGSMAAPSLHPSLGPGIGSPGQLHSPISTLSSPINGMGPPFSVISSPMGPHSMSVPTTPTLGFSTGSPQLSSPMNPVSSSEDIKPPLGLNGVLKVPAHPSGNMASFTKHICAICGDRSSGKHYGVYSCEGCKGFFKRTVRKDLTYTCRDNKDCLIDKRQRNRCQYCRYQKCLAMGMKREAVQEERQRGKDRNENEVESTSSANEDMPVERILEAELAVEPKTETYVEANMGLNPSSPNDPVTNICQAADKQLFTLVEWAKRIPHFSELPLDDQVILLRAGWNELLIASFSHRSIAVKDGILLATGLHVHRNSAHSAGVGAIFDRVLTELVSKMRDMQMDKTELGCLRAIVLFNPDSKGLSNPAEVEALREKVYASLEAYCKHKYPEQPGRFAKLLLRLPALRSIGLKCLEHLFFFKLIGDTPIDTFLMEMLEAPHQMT
The experiment in a line: Full-length receptor transactivation assay (PPREx3-tk-luc, hRXRα) in CV-1 cells. Format: cell-based. The settings on record: full-length hPPARα + RXRalpha, read-out: Transactivation activity FULL-hPPAR + mRXRalpha (EC50-Um) alpha. On the procedure:
(§3) Receptor expression plasmids: Full-length coding sequences for human PPARα, PPARγ and PPARδ were inserted into the mammalian expression vector pcDNA3.1+ or pCMX. The full-length coding sequence for human RXRα was inserted into pcDNA3.1+.
(§4) Reporter plasmid: PPREx3-tk-luc (3) was used as the reporter plasmid. It contains three copies of rat Acyl-CoA oxidase peroxisome proliferator response element (PPRE) sequence (AGGACA-A-AGGTCA).
as §2

For series [5], the target named is T5, human PPARγ (Homo sapiens, UniProt P37231).
T5 construct: expressed in transfected cells; host or cells: CV-1
T5 sequence (P37231 1-505): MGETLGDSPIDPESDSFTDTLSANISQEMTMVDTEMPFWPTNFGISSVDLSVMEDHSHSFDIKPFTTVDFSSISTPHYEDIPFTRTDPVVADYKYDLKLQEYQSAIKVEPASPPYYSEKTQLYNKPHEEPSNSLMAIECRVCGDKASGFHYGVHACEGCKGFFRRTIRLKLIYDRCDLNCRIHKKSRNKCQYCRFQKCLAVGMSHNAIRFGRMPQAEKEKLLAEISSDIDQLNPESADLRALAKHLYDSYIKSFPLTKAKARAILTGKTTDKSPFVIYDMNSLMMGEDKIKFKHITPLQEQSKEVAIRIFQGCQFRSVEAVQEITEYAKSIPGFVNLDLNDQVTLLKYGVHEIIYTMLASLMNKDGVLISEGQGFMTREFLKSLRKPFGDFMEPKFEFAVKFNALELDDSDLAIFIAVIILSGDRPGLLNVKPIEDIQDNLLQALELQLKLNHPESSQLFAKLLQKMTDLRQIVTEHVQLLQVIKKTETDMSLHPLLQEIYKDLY
T5 sequence (P19793 1-462 partner): T4 sequence (P19793 1-462 partner)
The series is described as above. Format: cell-based. The conditions noted are these: full-length hPPARγ + RXRalpha, read-out: Transactivation activity FULL-hPPAR + mRXRalpha (EC50-Um) gamma. On the procedure: as §3, §4, §2

For series [6], the target named is T6, human PPARδ (Homo sapiens, UniProt Q03181).
T6 construct: expressed in transfected cells; host or cells: CV-1
T6 sequence (Q03181 1-441): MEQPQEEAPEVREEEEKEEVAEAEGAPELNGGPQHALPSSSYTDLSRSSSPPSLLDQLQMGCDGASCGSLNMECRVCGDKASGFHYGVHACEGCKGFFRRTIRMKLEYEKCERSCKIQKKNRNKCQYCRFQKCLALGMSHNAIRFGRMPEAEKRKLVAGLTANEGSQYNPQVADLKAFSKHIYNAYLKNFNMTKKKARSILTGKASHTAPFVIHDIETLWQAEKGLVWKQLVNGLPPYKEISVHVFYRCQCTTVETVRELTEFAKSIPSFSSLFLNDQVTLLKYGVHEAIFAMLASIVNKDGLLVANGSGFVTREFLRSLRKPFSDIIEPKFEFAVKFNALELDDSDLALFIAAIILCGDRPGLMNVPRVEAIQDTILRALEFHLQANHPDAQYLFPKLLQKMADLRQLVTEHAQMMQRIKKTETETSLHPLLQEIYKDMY
T6 sequence (P19793 1-462 partner): T4 sequence (P19793 1-462 partner)
The description is as above. Format: cell-based. The conditions noted are these: full-length hPPARδ + RXRalpha, read-out: Transactivation activity FULL-hPPAR + mRXRalpha (EC50-Um) delta. On the procedure:
as §3, §4, §2

The conditions of series [7]: toxicological dosages for 10 days, cited from earlier work; for Peroxisome proliferation in muscle and liver: WT mice.

For the compound `Cc1cc(C(O)CCc2sc(-c3ccc(C(F)(F)F)cc3)nc2C(C)C)ccc1OCC(=O)O` (stereo not drawn), the EC50 was > 10 µM in series [1]; > 10 µM in series [2]; > 1 µM in series [3]; > 8 µM in series [4]; > 8 µM in series [5]; > 0.3 µM in series [6].

As to `Cc1cc(C(=O)CCc2sc(-c3ccc(C(F)(F)F)cc3)nc2C(C)C)ccc1OCC(=O)O` [drawing 63], the EC50 is > 10 µM in series [1]; > 8 µM in series [2]; 0.018 µM in series [3]; 3.2 µM in series [4]; 5.8 µM in series [5]; 0.0022 µM in series [6].

Turning to `Cc1cc2c(CCc3nc(-c4ccc(Cl)cc4Cl)oc3C(C)C)noc2cc1OCC(=O)O`, the EC50 in series [1] is > 10 µM; in series [2] it was > 10 µM; in series [3] it was 0.025 µM; in series [4] it was 7.8 µM; in series [5], > 10 µM; in series [6] it was 0.007 µM.

Consider `Cc1cc(C(=O)/C=C/c2sc(-c3ccc(C(F)(F)F)cc3)nc2C(C)C)ccc1OCC(=O)O`, for which the EC50 in series [1] is > 10 µM; in series [2], > 10 µM; in series [3] it was 0.045 µM; in series [4], > 10 µM; in series [5], > 10 µM; in series [6] it was 0.019 µM.

As to `Cc1cc([C@H](O)CCc2sc(-c3ccc(C(F)(F)F)cc3)nc2C(C)C)ccc1OCC(=O)O`, the EC50 was > 10 µM in series [1], > 10 µM in series [2] and > 0.7 µM in series [3].

As for `Cc1cccc(Nc2cc(Cl)nc(SCC(=O)O)n2)c1C` [WY-14,643], the “Peroxisome proliferation in muscle and liver” value in series [7] is given as “significant peroxisome proliferation”.

`Cc1cc(C(=O)CCc2sc(-c3ccc(C(F)(F)F)cc3)nc2C(C)C)ccc1SCC(=O)O`: the EC50 in series [1] amounted to 3.3 µM; in series [2], 6.7 µM; in series [3], 0.018 µM.

With `Cc1cc(SCc2sc(-c3ccc(C(F)(F)F)c(F)c3)nc2C)ccc1OCC(=O)O` [GW0742], the “Peroxisome proliferation in muscle and liver” value in series [7] is “significant peroxisome proliferation”. Also, the “Incidence and severity of skeletal myopathy” value in series [7] (WT vs PPAR-α KO mice) is on record as “greater in WT mice”.

As to `Cc1cc(C(=O)CCc2nc(-c3ccc(Cl)cc3O)oc2C(C)C)ccc1OCC(=O)O`, the EC50 was > 10 µM in series [1]; > 10 µM in series [2]; 0.032 µM in series [3]; 3.8 µM in series [4]; 9.8 µM in series [5]; 0.058 µM in series [6].

These data come from US20110092517A1, “Use of PPAR Delta Ligands for the Treatment or Prevention of Inflammation or Energy Metabolism/Production Related Diseases” (Cerenis Therapeutics S.A. & Nippon Chemiphar Co., Ltd., priority 2009, published 2011).
